According to US5477857A, “Diagnostic uses of hydrazinoadenosines” (priority 1993, dated 1995):

Tests used:
[1] = Systemic blood pressure response in anesthetized dog; settings: infusion: adenosine 372 μg/kg/min, Compound A 1 μg/kg/min
Experimental: An anesthetized dog was prepared for cardiovascular function testing. Electromagnetic flow probes were placed on the circumflex coronary artery and the left anterior descending coronary artery. Systemic systolic and diastolic blood pressure and heart rate were also measured.

[2] = test system: circumflex coronary artery; experiment: Circumflex coronary blood flow in anesthetized dog, electromagnetic flow probes; type: in vivo; settings: for increase in circumflex coronary blood flow: adenosine 372 μg/kg/min, Compound A 1.0 μg/kg/min
Experimental: An anesthetized dog was prepared for cardiovascular function testing.

[3] = test system: circumflex coronary artery; experiment: Thallium-201 scintigram in anesthetized dogs with stenosed circumflex coronary artery; type: in vivo; settings: dog, adenosine 372 μg/kg/min for 6 minutes, Compound A 0.6 μg/kg/min
Source text: Dogs were anesthetized and their circumflex coronary artery was stenosed to produce a cardiac perfusion deficit.

coronary arterioles = settings: background, cited from earlier work
[4] = literature; cited from earlier work
A2a (coronary) = A2a (coronary) (Cavia porcellus, UniProt P46616)
A2a (coronary), sequence (P46616 whole entry, the tested form may be a part): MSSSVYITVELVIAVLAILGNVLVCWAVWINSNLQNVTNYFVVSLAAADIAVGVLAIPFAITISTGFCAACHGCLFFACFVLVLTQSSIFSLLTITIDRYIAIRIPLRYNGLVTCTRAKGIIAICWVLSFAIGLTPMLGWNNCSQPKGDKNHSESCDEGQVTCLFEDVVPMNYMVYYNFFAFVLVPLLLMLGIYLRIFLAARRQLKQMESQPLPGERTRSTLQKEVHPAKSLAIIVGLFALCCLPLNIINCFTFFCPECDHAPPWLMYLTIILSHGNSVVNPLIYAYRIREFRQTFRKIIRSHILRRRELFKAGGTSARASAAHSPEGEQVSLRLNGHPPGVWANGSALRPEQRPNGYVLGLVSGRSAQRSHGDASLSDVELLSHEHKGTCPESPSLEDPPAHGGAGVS
Experimental: An isolated guinea pig heart preparation was set up using well-known techniques. The heart was perfused with a constant flow pump through the coronary vessels with a oxygenated balanced salt solution. The coronary perfusion pressure and the EKG were measured. Under constant flow, a decrease in coronary perfusion pressure indicates dilation (A2a effect).

A1 (EKG) = biological target: T1, A1 (EKG) (Cavia porcellus, UniProt P47745); experiment: A50 for decrease in heart rate or conduction velocity on the EKG (A1 effect) in the isolated guinea pig heart
T1 construct: An isolated guinea pig heart preparation was set up using well-known techniques; from tissue; host or cells: isolated perfused guinea pig heart
T1 sequence (P47745 1-326): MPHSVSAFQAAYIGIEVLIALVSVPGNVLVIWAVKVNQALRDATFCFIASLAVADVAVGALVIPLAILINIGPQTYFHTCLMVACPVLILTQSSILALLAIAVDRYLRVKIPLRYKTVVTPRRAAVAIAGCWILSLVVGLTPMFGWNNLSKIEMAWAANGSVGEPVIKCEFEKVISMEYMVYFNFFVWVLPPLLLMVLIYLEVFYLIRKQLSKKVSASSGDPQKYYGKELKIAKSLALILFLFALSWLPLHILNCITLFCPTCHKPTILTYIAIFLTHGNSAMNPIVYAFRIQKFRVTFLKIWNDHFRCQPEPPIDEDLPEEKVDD

[5] = infusion: adenosine 372 μg/kg/min, Compound A 1 μg/kg/min

SMILES | CHANGE IN SYSTOLIC BLOOD PRESSURE [1] | DURATION OF RESPONSE [1] | increase in circumflex coronary blood flow [2] | CHANGE IN […] FLOW [2, 5] | perfusion defect shown on thallium-201 scintigram [3] | duration of coronary blood flow effect (coronary arterioles) | heart block (coronary arterioles; particularly at doses near 1 mg/kg) | duration of significant hypotensive response [4] | reflex tachycardia [4] | S[…] A1/A2a (A2a (coronary); A50 EKG (A1) over A50 coronary (A2a)) | potency relative to adenosine in causing coronary vasodilation (A2a (coronary); isolated guinea pig heart, vs adenosine) | EC50 (A2a (coronary); read-out: A50 CORONARY (A2a EFFECT), isolated guinea pig heart, concentration producing a 50% maximal response) | EC50 (A1 (EKG)) | CHANGE IN CIRCUMFLEX CORONARY FLOW [2, 5]
Nc1ncnc2c1ncn2[C@@H]1O[C@H](CO)[C@@H](O)[C@H]1O [Adenosine, adenosine] | -25% | 5 min | 300% | +300% | clearly showed a perfusion defect | short-lasting | even blocks (stops) the heart beat | – | – | – | – | – | – | –
CCNC(=O)[C@H]1O[C@@H](n2cnc3c(N)nc(NCCc4ccc(CCC(=O)O)cc4)nc32)[C@H](O)[C@@H]1O [CGS 21680] | – | – | – | – | – | – | – | more than 24 hrs | significant reflex tachycardia | – | – | – | – | –
Nc1nc(NN=CC2CCCCC2)nc2c1ncn2[C@@H]1O[C@H](CO)[C@@H](O)[C@H]1O [Compound A] | – | 15 min | 500% | – | – | – | – | – | – | 15,000 | 250 times | 0.2 nM | 3000 nM | +500%
